# Positions count from the first letter of the chain named. Like-named read-outs stand apart in the source and are kept apart here.
# Columns and labels:
# W299A mutant PXR = biological target: T1, W299A mutant PXR (Homo sapiens, UniProt O75469, W299A); conditions: 293T cells, 24 h, Fig. 6
# T1 sequence (O75469 1-434 W299A): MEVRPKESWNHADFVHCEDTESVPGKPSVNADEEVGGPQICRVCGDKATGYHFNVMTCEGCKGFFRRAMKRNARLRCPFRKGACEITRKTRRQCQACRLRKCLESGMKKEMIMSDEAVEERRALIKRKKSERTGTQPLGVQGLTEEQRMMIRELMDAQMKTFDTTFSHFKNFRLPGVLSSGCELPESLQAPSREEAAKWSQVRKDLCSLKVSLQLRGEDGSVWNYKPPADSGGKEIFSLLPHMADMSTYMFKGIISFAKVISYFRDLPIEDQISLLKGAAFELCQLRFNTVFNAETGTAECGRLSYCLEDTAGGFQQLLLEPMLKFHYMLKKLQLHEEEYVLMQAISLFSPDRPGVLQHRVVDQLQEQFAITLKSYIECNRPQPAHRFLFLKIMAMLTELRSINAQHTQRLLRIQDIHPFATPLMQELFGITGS
# PXR LBD [1] = biological target: T2, PXR LBD (Homo sapiens, UniProt O75469)
# T2 sequence (O75469 146-433 limits assumed): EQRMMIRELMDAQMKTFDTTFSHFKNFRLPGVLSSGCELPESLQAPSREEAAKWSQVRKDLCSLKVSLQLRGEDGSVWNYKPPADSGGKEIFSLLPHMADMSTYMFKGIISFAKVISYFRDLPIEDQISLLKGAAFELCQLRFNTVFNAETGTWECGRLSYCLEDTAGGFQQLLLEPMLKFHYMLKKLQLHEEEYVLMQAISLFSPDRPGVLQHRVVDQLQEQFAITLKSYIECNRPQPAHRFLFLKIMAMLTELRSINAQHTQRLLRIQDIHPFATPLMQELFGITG
# PXR LBD [2] = biological target: T2, PXR LBD; assay: biochemical; conditions: PXR LBD binding [IC50 ± SD (µM)]
# PXR = biological target: T3, PXR (Homo sapiens, UniProt O75469); assay type: cell-based; conditions: WT PXR-transfected 293T cells, 24 h, Fig. 5
# T3 sequence (O75469 1-434): T1 sequence (O75469 1-434 W299A) with A299W
SMILES,"reporter activity for W299A PXR versus WT, in words (W299A mutant PXR)","Group (PXR LBD binding affinity group) (PXR LBD [1]; human, pH 7.5)",IC50 (PXR LBD [2]) [µM],"cellular PXR activity (luciferase reporter), in words (PXR)","FC, fold change, compound's IC50 divided by that of rifampicin (PXR LBD [1]; PXR LBD binding, relative to rifampicin)",Group (PXR LBD binding affinity group) (PXR LBD [1]; grouping relative to rifampicin affinity),"IC50 (PXR LBD [2]; TR-FRET, GST-PXR LBD, rifampicin analog series) [µM]"
CO[C@H]1/C=C/O[C@@]2(C)Oc3c(C)c(O)c4c(c3C2=O)C2=NC3(CCN(CC(C)C)CC3)NC2=C(NC(=O)/C(C)=C\C=C\[C@H](C)[C@H](O)[C@@H](C)[C@@H](O)[C@@H](C)[C@H](OC(C)=O)[C@@H]1C)C4=O [Rifabutin],changed very little,1,11.8 ± 4.4,,,,
CO[C@H]1/C=C/O[C@@]2(C)Oc3c(C)c(O)c4c(c3C2=O)C(=O)C=C(NC(=O)/C(C)=C\C=C\[C@H](C)[C@H](O)[C@@H](C)[C@@H](O)[C@@H](C)[C@H](OC(C)=O)[C@@H]1C)C4=O [Rifamycin S],nearly completely inactive,2,0.054 ± 0.014,marginally better than rifampicin,,,
CO[C@H]1/C=C/O[C@@]2(C)Oc3c(C)c(O)c4c(O)c(cc(O)c4c3C2=O)NC(=O)/C(C)=C\C=C\[C@H](C)[C@H](O)[C@@H](C)[C@@H](O)[C@@H](C)[C@H](OC(C)=O)[C@@H]1C [Rifamycin],,2,0.067 ± 0.009,marginally better than rifampicin,,,
CO[C@H]1/C=C/O[C@@]2(C)Oc3c(C)c(O)c4c(O)c(c5c(nc6cc(C)ccn65)c4c3C2=O)NC(=O)/C(C)=C\C=C\[C@H](C)[C@H](O)[C@@H](C)[C@@H](O)[C@@H](C)[C@H](OC(C)=O)[C@@H]1C [Rifaximin],,,,,4.2,1,11.4 ± 3.3

# From paper PMC10013835 (Proceedings of the National Academy of Sciences of the …, 2023)
